In ChEMBL document CHEMBL3885861, “Open TG-GATES”:

Organism: Rattus norvegicus
Test: Open TG-GATES - Regimen: Single
Format: toxicity, organism-based, Sprague-Dawley
Set-up: regimen Single, gender Male, age 6 weeks
Conditions: in vivo, po, 100 mg/kg, route gavage, dose level Middle; for APTT / Bas / Eos / Fbg / Hb / Ht / Lym / MCH / MCHC / MCV / Mono / Neu / PT / Plat / RBC / Ret / WBC: tissue Blood; for KIDNEY_L / KIDNEY_R / KIDNEY_TOTAL: tissue Kidney; for LIVER: tissue Liver; for A/G / ALP / ALT / AST / BUN / CRE / Ca / Cl / DBIL / GLC / IP / K / LDH / Na / PL / RALB / TBIL / TC / TG / TP / gamma-GTP: tissue Plasma

Structure (SMILES): NC(=O)N/N=C/c1ccc([N+](=O)[O-])o1 [NITROFURAZONE]
- TERMINAL_BW (3 h): 183.7 g
- APTT (3 h): 16.6 s
- Bas (3 h): 0.2%
- Eos (3 h): 1%
- Fbg (3 h): 235.8 mg/dL
- Hb (3 h): 12.4 g/dL
- Ht (3 h): 38.5%
- Lym (3 h): 73.4%
- MCH (3 h): 21.7 pg
- MCHC (3 h): 32.3%
- MCV (3 h): 67.2 fL
- Mono (3 h): 5.2%
- Neu (3 h): 19.6%
- PT (3 h): 14.8 s
- Plat (3 h): 123.7 x10_4/uL
- RBC (3 h): 572.4 x10_4/ul
- Ret (3 h): 11.4%
- WBC (3 h): 71.3 x10_2/uL
- KIDNEY_L (3 h): 0.8 g
- KIDNEY_R (3 h): 0.8 g
- KIDNEY_TOTAL (3 h): 1.6 g
- LIVER (3 h): 7.7 g
- A/G (3 h): 0.9
- ALP (3 h): 1361.8 IU/L
- ALT (3 h): 41.2 IU/L
- AST (3 h): 74.8 IU/L
- BUN (3 h): 11.8 mg/dL
- CRE (3 h): 0.2 mg/dL
- Ca (3 h): 11.3 mg/dL
- Cl (3 h): 104.8 meq/L
- DBIL (3 h): 0.006 mg/dL
- GLC (3 h): 177.6 mg/dL
- IP (3 h): 8.8 mg/dL
- K (3 h): 4.3 meq/L
- LDH (3 h): 51.6 IU/L
- Na (3 h): 140.8 meq/L
- PL (3 h): 127.6 mg/dL
- RALB (3 h): 2.4 g/dL
- TBIL (3 h): 0.06 mg/dL
- TC (3 h): 73.4 mg/dL
- TG (3 h): 29.8 mg/dL
- TP (3 h): 5.2 g/dL
- gamma-GTP (3 h): 1.2 IU/L
- TERMINAL_BW (6 h): 182.2 g
- APTT (6 h): 16 s
- Bas (6 h): 0%
- Eos (6 h): 1%
- Fbg (6 h): 272.8 mg/dL
- Hb (6 h): 12.8 g/dL
- Ht (6 h): 40%
- Lym (6 h): 71.2%
- MCH (6 h): 21.3 pg
- MCHC (6 h): 32%
- MCV (6 h): 66.4 fL
- Mono (6 h): 3.2%
- Neu (6 h): 23.8%
- PT (6 h): 14.6 s
- Plat (6 h): 112.7 x10_4/uL
- RBC (6 h): 602 x10_4/ul
- Ret (6 h): 10.1%
- WBC (6 h): 85.4 x10_2/uL
- KIDNEY_L (6 h): 0.8 g
- KIDNEY_R (6 h): 0.8 g
- KIDNEY_TOTAL (6 h): 1.7 g
- LIVER (6 h): 7.3 g
- A/G (6 h): 0.9
- ALP (6 h): 1451.4 IU/L
- ALT (6 h): 41.4 IU/L
- AST (6 h): 74 IU/L
- BUN (6 h): 8.6 mg/dL
- CRE (6 h): 0.2 mg/dL
- Ca (6 h): 11.3 mg/dL
- Cl (6 h): 105.2 meq/L
- DBIL (6 h): 0.01 mg/dL
- GLC (6 h): 162.4 mg/dL
- IP (6 h): 9.8 mg/dL
- K (6 h): 3.8 meq/L
- LDH (6 h): 85.8 IU/L
- Na (6 h): 142.4 meq/L
- PL (6 h): 146.6 mg/dL
- RALB (6 h): 2.4 g/dL
- TBIL (6 h): 0.072 mg/dL
- TC (6 h): 89.4 mg/dL
- TG (6 h): 25.8 mg/dL
- TP (6 h): 5.2 g/dL
- gamma-GTP (6 h): 1.2 IU/L
- TERMINAL_BW (9 h): 176.6 g
- APTT (9 h): 15.8 s
- Bas (9 h): 0%
- Eos (9 h): 1%
- Fbg (9 h): 270.8 mg/dL
- Hb (9 h): 13.5 g/dL
- Ht (9 h): 41.4%
- Lym (9 h): 72.5%
- MCH (9 h): 21.6 pg
- MCHC (9 h): 32.4%
- MCV (9 h): 66.6 fL
- Mono (9 h): 2.8%
- Neu (9 h): 22.8%
- PT (9 h): 14.8 s
- Plat (9 h): 103.9 x10_4/uL
- RBC (9 h): 622.2 x10_4/ul
- Ret (9 h): 10.2%
- WBC (9 h): 69.6 x10_2/uL
- KIDNEY_L (9 h): 0.8 g
- KIDNEY_R (9 h): 0.8 g
- KIDNEY_TOTAL (9 h): 1.6 g
- LIVER (9 h): 7.2 g
- A/G (9 h): 0.9
- ALP (9 h): 1273.8 IU/L
- ALT (9 h): 39 IU/L
- AST (9 h): 74.5 IU/L
- BUN (9 h): 9 mg/dL
- CRE (9 h): 0.2 mg/dL
- Ca (9 h): 10.9 mg/dL
- Cl (9 h): 104.5 meq/L
- DBIL (9 h): 0.0175 mg/dL
- GLC (9 h): 165 mg/dL
- IP (9 h): 11.4 mg/dL
- K (9 h): 4 meq/L
- LDH (9 h): 69.2 IU/L
- Na (9 h): 142.2 meq/L
- PL (9 h): 149.5 mg/dL
- RALB (9 h): 2.4 g/dL
- TBIL (9 h): 0.0675 mg/dL
- TC (9 h): 83.5 mg/dL
- TG (9 h): 38.8 mg/dL
- TP (9 h): 5.1 g/dL
- gamma-GTP (9 h): 1.2 IU/L
- TERMINAL_BW (24 h): 185.1 g
- APTT (24 h): 15.7 s
- Bas (24 h): 0%
- Eos (24 h): 0.6%
- Fbg (24 h): 296 mg/dL
- Hb (24 h): 13.1 g/dL
- Ht (24 h): 40.5%
- Lym (24 h): 83.4%
- MCH (24 h): 21.8 pg
- MCHC (24 h): 32.4%
- MCV (24 h): 67.2 fL
- Mono (24 h): 3%
- Neu (24 h): 12.2%
- PT (24 h): 14.8 s
- Plat (24 h): 109 x10_4/uL
- RBC (24 h): 602 x10_4/ul
- Ret (24 h): 9.3%
- WBC (24 h): 90.2 x10_2/uL
- KIDNEY_L (24 h): 0.8 g
- KIDNEY_R (24 h): 0.8 g
- KIDNEY_TOTAL (24 h): 1.7 g
- LIVER (24 h): 8.6 g
- A/G (24 h): 0.9
- ALP (24 h): 1441.6 IU/L
- ALT (24 h): 44.6 IU/L
- AST (24 h): 78.4 IU/L
- BUN (24 h): 14 mg/dL
- CRE (24 h): 0.2 mg/dL
- Ca (24 h): 11 mg/dL
- Cl (24 h): 103.6 meq/L
- DBIL (24 h): 0.016 mg/dL
- GLC (24 h): 168.8 mg/dL
- IP (24 h): 8.5 mg/dL
- K (24 h): 4 meq/L
- LDH (24 h): 71.6 IU/L
- Na (24 h): 140.6 meq/L
- PL (24 h): 140.6 mg/dL
- RALB (24 h): 2.5 g/dL
- TBIL (24 h): 0.058 mg/dL
- TC (24 h): 77.6 mg/dL
- TG (24 h): 73.8 mg/dL
- TP (24 h): 5.4 g/dL
- gamma-GTP (24 h): 1 IU/L
